Data as given in US11400088B2, “Uses of compound in preparation of drugs for treating brain glioma” (BEIJING PEARL BIOTECHNOLOGY LIMITED LIABILITY COMPANY, priority 2015, dated 2022).

Tests used:
[1] = tested on: PCDH-blank expressing cells (U87); assay: MTT inhibition of glioblastoma cell proliferation, blank reference cells; format: cell-based; details: Homo sapiens, U-87 MG, 72 hours, read-out: Inhibitory activities (IC50, μM) of tested compounds on cells
Source text: (§1) First, a lentiviral vector PCDH (PCDH-EF1-MCS-T2A-Puro, SBI, product No.: CD510B-1, structure shown in FIG. 4) was used, and the nucleotide sequence as shown by SEQ ID NO: 7 or SEQ ID NO: 8 was cloned into the vector according to the instructions thereof, to prepare expression vectors which expressed fusion proteins respectively represented by SEQ ID NO: 3 and SEQ ID NO: 4. The expression vectors were respectively named and marked as “PCDH-ZM1-2” and “PCDH-ZM2-2”. Then, a viral packaging plasmid (SBI, product No. LV500A-1) was used to co-infect 293T cells with one of the vectors to prepare a lentivirus. The same method was performed to package the lentiviral vector PCDH and co-infect 293T cells, to prepare a lentivirus with the blank vector, which was named as “PCDH-blank”.
(§2) The U87 cells were infected with any of the lentiviruses as prepared above and screened by applying puromycin (0.5 μg/mL for screening, and 0.2 μg/mL for maintenance) to establish cell models which stably expressed the fusion proteins. The cell models were verified for the expression of the fusion proteins and the transcription of the fusion genes by immunoblotting and reverse transcription PCR, and cell lines which stably expressed fusion proteins ZM1-2 and ZM2-2 respectively were obtained finally and named as “PCDH-ZM1-2 expressing cells” and “PCDH-ZM2-2 expressing cells” respectively. Similarly, U87 cells were infected with the lentivirus PCDH-blank with the blank vector to obtain “PCDH-blank expressing cells” as a blank reference.
(§3) Those U87 cells which were cultured in a large dish and were in a logarithmic stage were washed once with sterile PBS, and then digested with 0.25% trypsin for 2 min. After all cells were digested to detach, complete DMEM medium containing 10% fetal bovine serum (FBS) was used to stop the digestion. The cells were counted and the cell concentration was adjusted to 20,000 cells/ml. Then, the cells were seeded into a Corning 96-well plate (2,000 cells/well) using a multi-channel pipette, and incubated in a 5% CO2 incubator at 37° C. for 24 hours. The compounds to be tested (crizotinib and the compounds represented by formulas A to H) were respectively dissolved in DMSO to prepare stock solutions, and then the stock solutions and the complete medium were used to prepare solutions with different concentrations of medicaments (0, 5, 10, 20, 40, 60, 80, 100 μM). The cells were incubated in the incubator for additional 72 hours, and then 20 μl of 3-(4,5-dimethylthiazole-2)-2,5-diphenyl tetrazolium bromide (MTT) was added into each well. After 1-3 hours in the incubator, the absorbance at 490 nm was determined using a microplate reader. The inhibition rate corresponding to each concentration was calculated, and the value of IC50 was calculated with GraphPad software.

[2] = tested on: PCDH-ZM1-2 expressing cells (U87); assay: MTT inhibition of glioblastoma cell proliferation, ZM1-2 fusion protein expressing cells; format: cell-based; details: Homo sapiens, 72 hours, read-out: Inhibitory activities (IC50, μM) of tested compounds on cells
Source text: as §1, §2, §3

[3] = tested on: human glioma cell line U87; assay: MTT inhibition of glioblastoma cell proliferation, U87 initial cells; format: cell-based; details: 72 hours, read-out: Inhibitory activities (IC50, μM) of tested compounds on cells
Description: The compound represented by formula A and crizotinib as well as compounds represented by formulas B to H that respectively have a structure similar to the structure of formula A were employed to carry out the experiment of testing the activity of inhibiting glioblastoma cell proliferation.
as §2, §3

[4] = tested on: PCDH-ZM2-2 expressing cells (U87); assay: MTT inhibition of glioblastoma cell proliferation, ZM2-2 fusion protein expressing cells; format: cell-based; details: Homo sapiens, 72 hours, read-out: Inhibitory activities (IC50, μM) of tested compounds on cells
Source text: as §1, §2, §3

[5] = tested on: PCDH-ZM2-2 expressing cells; assay: Inhibition of subcutaneous tumor growth in ZM2-2 mice (1); format: in vivo, BALB/c (nu/nu) nude mice; details: 10 mg/KG/day by gavage, vs normal saline, FIG. 5
Description: First, a tumor-bearing mouse model was established. BALB/c (nu/nu) maternal nude mice, aged 6-8 weeks, with a weight of about 16-18 g were purchased from Vital River. “PCDH-blank expressing cells” and “PCDH-ZM2-2 expressing cells” prepared in Example 4 were prepared into suspensions of 10^7 cells/ml with PBS respectively. Nude mice sterilized with 75% ethanol were subcutaneously injected with 100 μl of the cell suspensions at the right scapular area, in which the PCDH-blank expressing cells were injected into seven nude mice, and PCDH-ZM2-2 expressing cells were injected into 21 nude mice. […] The tumor size and variations in mouse weight were measured twice a week. […]
When the tumors grew to have a volume of about 100 mm^3, the ZM2-2 mice (1) were divided into three groups according to mean tumor size, including a group of 7 mice which were administered with the compound represented by formula A, a group of 7 mice which were administered with crizotinib, and a control group of 7 mice. […] The tumor size and variations in mouse weight were measured twice a week. The tumor diameter was measured with a vernier caliper, and the equation for calculating tumor volume was: tumor volume=0.5*Length*Width^2.

[6] = tested on: PCDH-blank expressing cells; assay: Intracranial tumor model, survival, vector mice (2); format: in vivo, nude mice; details: 50 mg/KG weight/day by gavage, over 6 weeks, FIG. 6
Description: (§4) First, a tumor-bearing mouse model was established. “PCDH-blank expressing cells” and “PCDH-ZM2-2 expressing cells” prepared in Example 4 were prepared into suspensions of 10^5 cells/5 μl with PBS respectively. Nude mice sterilized with 75% ethanol were inoculated with […] the cell suspensions. The cell inoculation position (2 mm away on the right side of anterior fontanel, and 2 mm backward) was determined using a brain stereotaxic apparatus for mouse; the injection depth was 3.5 mm and then elevated by 0.6 mm; and 5 μl of cell solutions respectively was injected to each mouse. After injection, the mice were kept still for 1 min, and then received a conventional skin closure. After intracranial tumors were observed, the tumor-bearing mice obtained with the “PCDH-blank expressing cells” were named as “vector mice (2)”, and the tumor-bearing mice obtained with the “PCDH-ZM2-2 expressing cells” were named as “ZM2-2 mice (2)”.
(§5) 8 Vector mice (2) and 8 ZM2-2 mice (2) were respectively administered with the compound represented by the formula A at a dose of 50 mg/KG weight/day. The compound was administrated once a day by gavage. At the same time, another group of 8 ZM2-2 mice (2) were given with normal saline, as a control group. The experiment lasted for over 6 weeks.

[7] = tested on: PCDH-ZM2-2 expressing cells; assay: Intracranial tumor model, survival and brain MRI, ZM2-2 mice (2); format: in vivo, nude mice
Description: as §4, §5
The brains of ZM2-2 mice (2) given with the compound represented by formula A were detected by nuclear magnetic resonance imaging on the 16th day after the compound represented by formula A was administered for the first time. […] See results in panel 7C.
Another 8 ZM2-2 mice (2) were also administered with the compound represented by formula A at a dose of 50 mg/KG weight/day. The compound was administrated once a day by gavage. Then, the compound administration was stopped on the 16th day after the first administration, and the brains were detected through nuclear magnetic resonance imaging on the 10th day after the compound withdrawal. […] Results are shown in panel 7D.

Row | IC50 [1] [µM] | IC50 [2] [µM] | IC50 [3] [µM] | IC50 [4] [µM] | SMILES | growth of tumors (tumor volume) [5] | survival of mice [6] | intracranial tumor growth after compound withdrawal by nuclear magnetic resonance imaging ([7]; 50 mg/KG weight/day stopped on 16th day, imaged 10th day after withdrawal, panel 7D) | intracranial tumor size by nuclear magnetic resonance imaging ([7]; 50 mg/KG weight/day, 16th day after first administration, panel 7C) | survival time of mice ([7]; intracranial, 50 mg/KG weight/day by gavage, over 6 weeks, FIG. 6)
1 | 58.8 | 90.3 | 64.4 | 125 | Cn1cc2cc(C(F)(F)c3nnc4ccc(-c5cnn(C6CC6)c5)cn34)c(F)cc2n1 [Formula F] | – | – | – | – | –
2 | 5.79 | 9.45 | 4.78 | 12.8 | Cn1cc2cc(C(F)(F)c3nnc4ccc(-c5ccc(NC(=O)C6CC6)c(F)c5)nn34)c(F)cc2n1 [Formula C] | – | – | – | – | –
3 | 4.93 | 5.22 | 5.56 | 7.21 | Cn1cc(-c2ccc3nnc(C(F)(F)c4cc5cn(C)nc5cc4F)n3n2)cn1 [Formula D] | – | – | – | – | –
4 | 21.6 | 32.6 | 17.2 | 21.9 | CC(C)n1cc(-c2ccc3nnc(C(F)(F)c4cc5cn(C)nc5cc4F)n3n2)cn1 [Formula E] | – | – | – | – | –
5 | 19.4 | 23.3 | 25.4 | 45.1 | Nc1nc2cc(F)c(Cc3nnc4ccc(-c5cnn(C6CC6)c5)nn34)cc2s1 [Formula H] | – | – | – | – | –
6 | 6.02 | 7.63 | 8.15 | 5.59 | CNC(=O)c1c(F)cc(-c2ccc3nnc(C(F)(F)c4cc5cn(C)nc5cc4F)n3n2)cc1F [Formula B] | – | – | – | – | –
7 | 9.25 | 6.75 | 9.07 | 15.2 | Cn1cc2cc(C(F)(F)c3nnc4ncc(-c5cnn(C6CC6)c5)cn34)c(F)cc2n1 [Formula G] | – | – | – | – | –
8 | 3.27 | 8.26 | 2.99 | 9.76 | C[C@@H](Oc1cc(-c2cnn(C3CCNCC3)c2)cnc1N)c1c(Cl)ccc(F)c1Cl [Crizotinib] | – | – | – | – | –

Row | SMILES | IC50 [1] [µM] | IC50 [2] [µM] | IC50 [3] [µM] | IC50 [4] [µM] | growth of tumors (tumor volume) [5] | survival of mice [6] | intracranial tumor growth after compound withdrawal by nuclear magnetic resonance imaging ([7]; 50 mg/KG weight/day stopped on 16th day, imaged 10th day after withdrawal, panel 7D) | intracranial tumor size by nuclear magnetic resonance imaging ([7]; 50 mg/KG weight/day, 16th day after first administration, panel 7C) | survival time of mice ([7]; intracranial, 50 mg/KG weight/day by gavage, over 6 weeks, FIG. 6)
9 | Cn1cc2cc(C(F)(F)c3nnc4ccc(-c5cnn(C6CC6)c5)nn34)c(F)cc2n1 [Formula A] | 2.85 | 1.34 | 3.51 | 1.83 | significantly inhibit the growth of tumors | all survived | resumed rapid growth | obviously became smaller | obviously prolonged the survival time
